Source: PubChem BioAssay (NCI)
Where “and” joins values, the source holds several entries; their conditions need not be identical. Identical values can stand only once.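 Grown in 96-well plates, cells were treated for 48 hours with each compound at five concentrations. Insufficient inhibition: endpoint recorded as highest concentration tested. GI50: concentration for 50% inhibition of growth. TGI: concentration producing complete growth inhibition.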

How the values were obtained:
Assay in all cases: NCI anticancer screen, dose series, 48 h
SNB-75 CNS = tested on: SNB-75 CNS
NCI-H23 lung = tested on: NCI-H23 lung
SN12C renal = tested on: SN12C renal
UACC-257 melanoma = tested on: UACC-257 melanoma
786-0 renal = tested on: 786-0 renal
K-562 leukemia = tested on: K-562 leukemia
SW-620 colon = tested on: SW-620 colon
EKVX NSCLC = tested on: EKVX NSCLC
CAKI-1 renal = tested on: CAKI-1 renal
HOP-92 NSCLC = tested on: HOP-92 NSCLC

Compound	TGI (SNB-75 CNS)	TGI (NCI-H23 lung)	TGI (SN12C renal)	TGI (UACC-257 melanoma)	TGI (786-0 renal)	TGI (K-562 leukemia)	TGI (SW-620 colon)	TGI (EKVX NSCLC) [µM]	TGI (CAKI-1 renal) [µM]	TGI (HOP-92 NSCLC)	GI50 (SNB-75 CNS)	GI50 (NCI-H23 lung)	GI50 (SN12C renal)	GI50 (UACC-257 melanoma)	GI50 (786-0 renal)	GI50 (K-562 leukemia)	GI50 (SW-620 colon)	GI50 (EKVX NSCLC) [µM]	GI50 (CAKI-1 renal)	GI50 (HOP-92 NSCLC)
CC1(C)OC(=O)C(=C2CCC(C(=O)Nc3cccc(C(F)(F)F)c3)N2)C(=O)O1 (stereo unspecified)	> 100 µM	> 100 µM	> 100 µM	> 100 µM	> 100 µM	> 100 µM	> 100 µM	> 100	26.6	> 100 µM	–	–	–	–	–	–	–	–	–	–
CN(C)CCN1CCc2c([nH]c3ccccc23)C1c1cccnc1 (stereo unspecified)	> 100 µM	> 100 µM	> 100 µM	> 100 µM	> 100 µM	> 100 µM	> 100 µM	> 100	> 100	> 100 µM	–	–	–	–	–	–	–	–	–	–
CCN(c1ccccc1)[C@H]1C(=O)N(c2ccc([N+](=O)[O-])cc2)[C@H]1c1ccc(OC)cc1	> 100 µM	> 100 µM	> 100 µM	> 100 µM	> 100 µM	> 100 µM	> 100 µM	> 100	> 100	81.8 µM	–	–	–	–	–	–	–	–	–	–
CC1(C)N=C(N)N=C(N)N1c1cccc(CCc2ccccc2)c1	46.4 µM	> 100 µM	> 100 µM	32.5 µM	> 100 µM	> 100 µM	> 100 µM	> 100	> 100	34.4 µM	0.707 µM	0.551 µM	0.456 µM	0.533 µM	0.799 µM	0.299 µM	0.156 µM	1.1	40.2 µM	2.65 µM
O=C1Nc2ccc3c(c2/C1=C\c1cc2c(cc1Br)OCO2)OCO3	1.41 µM	7.42 µM	6.47 µM	–	3.43 µM	> 35.9 µM	3.47 µM	8.09	2.8	4.37 µM	0.189 µM	0.857 µM	0.781 µM	0.685 µM	1.24 µM	0.179 µM	0.357 µM	0.639	0.331 µM	1.16 µM
COc1cc2cc(Oc3cccc(NC(=O)Nc4cc(C(F)(F)F)cc(C(F)(F)F)c4)c3)c(C)nc2cc1OC	5.05 µM	3.55 µM	2.09 µM	5.49 µM	3.09 µM	2.53 µM	5.71 µM	2.98	5.1	3.9 µM	1.73 µM	0.639 µM	0.591 µM	2.48 µM	1.61 µM	0.573 µM	1.94 µM	1	1.41 µM	1.12 µM
COc1ccc(C2NC(=S)NC3=C2CCOc2c3ccc3ccccc23)cc1 (stereo unspecified)	> 100 µM	> 100 µM	> 100 µM	> 100 µM	> 100 µM	> 100 µM	> 100 µM	> 100	> 100	> 100 µM	60.7 µM	> 100 µM	> 100 µM	16.4 µM	> 100 µM	32.4 µM	> 100 µM	17.4	> 100 µM	77.1 µM
COc1cc2ncnc(Oc3cccc(NC(=O)Nc4cc(C(C)(C)C(F)(F)F)on4)c3)c2cc1OC	13.5 µM and > 10 µM	11.7 µM and > 10 µM	11.9 µM and > 10 µM	1.08 µM and 3.58 µM	14.7 µM and > 10 µM	25.9 µM and > 10 µM	20.8 µM and > 10 µM	> 10	> 43	3.41 µM and 5.29 µM	2.79 µM and 6.27 µM	1.28 µM and 1.43 µM	1.61 µM and 1.69 µM	0.132 µM and 0.235 µM	2.58 µM and 4.44 µM	0.0153 µM and 0.0146 µM	1.21 µM and 1.6 µM	1.52	1.06 µM and 1.44 µM	0.571 µM and 1.13 µM
COc1ccc(/C=C/C(=O)c2cc3c(N)c(C(=O)Nc4ccc(OC)cc4)sc3nc2C)cc1	2.21 µM	–	> 50 µM	> 50 µM	> 50 µM	> 50 µM	> 50 µM	> 50	> 50	> 50 µM	0.344 µM	0.181 µM	0.284 µM	> 23.4 µM	0.353 µM	0.385 µM	0.543 µM	1.3	0.593 µM	0.757 µM
CCOC(=O)[C@@H]1CSC(CC)=C(C(=O)O)N1	> 100 µM	> 100 µM	> 100 µM	> 100 µM	> 100 µM	> 100 µM	> 100 µM	> 100	> 100	> 100 µM	> 100 µM	> 100 µM	> 100 µM	> 100 µM	> 100 µM	> 100 µM	> 100 µM	> 100	> 100 µM	> 100 µM
COc1cc(NC2CCCCC2O)c2nc(-c3ccc(Cl)cc3)ccc2c1 (stereo unspecified)	59.1 µM	61.7 µM	53.1 µM	> 100 µM	18.6 µM	18.4 µM	46.7 µM	> 100	63.2	88.3 µM	5.04 µM	6.15 µM	9.96 µM	12.2 µM	5.23 µM	2.82 µM	7.52 µM	18.1	4.73 µM	18.7 µM
Nn1c(-c2ccc(Cl)cc2)nc2c(-c3ccc(Cl)cc3)nc3ccc(Cl)cc3c2c1=O	19.5 µM	> 100 µM	> 100 µM	> 100 µM	54.3 µM	48.5 µM	> 100 µM	> 100	22	31.6 µM	4.79 µM	33 µM	7.46 µM	25.2 µM	16.4 µM	11.4 µM	6.06 µM	5.86	3.97 µM	13.6 µM
COc1cccc(/C=N\NC(=O)C(C)SC(C)C(=O)N/N=C/c2cccc(OC)c2)c1 (stereo unspecified)	33.2 µM	73.2 µM	42.8 µM	> 100 µM	31.6 µM	> 100 µM	> 100 µM	60.2	> 80.8	38.8 µM	–	–	–	–	–	–	–	–	–	–
O=[N+]([O-])/C=C/c1ccc(Cl)cc1[N+](=O)[O-]	15.9 µM	10.6 µM	20.9 µM	24.9 µM	4.62 µM	24.1 µM	–	35.1	9.09	27.5 µM	3.79 µM	2.86 µM	3.08 µM	11.9 µM	2.42 µM	3.08 µM	–	13.1	2.16 µM	13.2 µM
